According to the NIST ThermoML archive (doi:10.1016/j.fluid.2017.02.010):
Numbers after ± are expanded uncertainties.

Details: 293.15 K; 101.33 kPa; Liquid; Other PVT measurement

In order of falling mass density:
1. c1ccc(C2CCCCC2)cc1 [cyclohexylbenzene]  940 ± 10 kg/m3
2. C1CCC(C2CCCCC2)CC1 [1,1'-bicyclohexyl]  890 ± 10 kg/m3
3. c1ccccc1 [benzene]  877 ± 10 kg/m3
4. CCCCCCC1CCCCC1 [hexylcyclohexane]  810 ± 10 kg/m3
5. CCCC1CCCCC1 [1-cyclohexylpropane]  790 ± 10 kg/m3
6. C1CCCCC1 [cyclohexane]  778 ± 10 kg/m3
7. CCCCCCCCCCCCCCCC [hexadecane]  773 ± 10 kg/m3
8. CCCCCCCCCCCCCC [tetradecane]  767 ± 10 kg/m3
9. CCCCCCCCCCCC [dodecane]  753 ± 10 kg/m3
10. CCCCCCCCC [nonane]  718 ± 10 kg/m3
11. CCCCCC [hexane]  659 ± 10 kg/m3
